What was measured:
b-Raf (V600E) = b-Raf (V600E) (Homo sapiens (Human), UniProt P15056, V600E); assay: In vitro Raf activity determination (Alpha Screen, phospho-MEK), b-Raf (V600E); type: biochemical; conditions: ATP 10 μM, 60 min pre-incubation, 3 hours reaction
Excerpt: The activity of a compound according to the present invention can be assessed by well-known in vitro & in vivo methods. Raf inhibition data provided herein was obtained using the following procedures.
Sf9 cells co-expressing both proteins were lysed and subjected to immobilized nickel chromatography and eluted with Imidazole. A second column (StrepII binding column) was used and eluted with desthiobiotin. Protein Tags were removed using Prescission enzyme and the protein was further purified using a flowthrough step to remove tags.
Full length MEK1 with an inactivating K97R ATP binding site mutation is utilized as a RAF substrate. The MEK1 cDNA was subcloned with an N-terminal (his)6 tag into a vector for E. Coli expression. The MEK1 substrate was purified from E. Coli lysate by nickel affinity chromatography followed by anion exchange. The final MEK1 preparation was biotinylated (Pierce EZ-Link Sulfo-NHS-LC-Biotin) and concentrated.
The plate was incubated for 60 minutes at room temperature. […] The additions were carried out under dark conditions to protect the detection beads from light. A lid was placed on top of the plate and incubated for 1 hour at room temperature, after which the luminescence was read on a PerkinElmer Envision instrument.

C-Raf FL = C-Raf FL (Homo sapiens (Human), UniProt P04049, Y340E/Y341E); assay: In vitro Raf activity determination (Alpha Screen, phospho-MEK), C-Raf FL (full length, Y340E/Y341E); type: biochemical; conditions: ATP 1 μM; 60 min pre-incubation; 1 hour reaction; column head does not say FL or TR
Method in brief: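 Read-out is AlphaScreen luminescence using rabbit anti-p-MEK with protein A beads after EDTA stop, with IC50 fitted by non-linear regression. Reaction: Sf9-derived C-Raf plus biotinylated E. coli MEK1 K97R substrate, pH 7.5 Tris/MgCl2/DTT buffer, compound preincubated 60 min at room temperature.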

Sequence of b-Raf (V600E) (P15056 whole entry V600E): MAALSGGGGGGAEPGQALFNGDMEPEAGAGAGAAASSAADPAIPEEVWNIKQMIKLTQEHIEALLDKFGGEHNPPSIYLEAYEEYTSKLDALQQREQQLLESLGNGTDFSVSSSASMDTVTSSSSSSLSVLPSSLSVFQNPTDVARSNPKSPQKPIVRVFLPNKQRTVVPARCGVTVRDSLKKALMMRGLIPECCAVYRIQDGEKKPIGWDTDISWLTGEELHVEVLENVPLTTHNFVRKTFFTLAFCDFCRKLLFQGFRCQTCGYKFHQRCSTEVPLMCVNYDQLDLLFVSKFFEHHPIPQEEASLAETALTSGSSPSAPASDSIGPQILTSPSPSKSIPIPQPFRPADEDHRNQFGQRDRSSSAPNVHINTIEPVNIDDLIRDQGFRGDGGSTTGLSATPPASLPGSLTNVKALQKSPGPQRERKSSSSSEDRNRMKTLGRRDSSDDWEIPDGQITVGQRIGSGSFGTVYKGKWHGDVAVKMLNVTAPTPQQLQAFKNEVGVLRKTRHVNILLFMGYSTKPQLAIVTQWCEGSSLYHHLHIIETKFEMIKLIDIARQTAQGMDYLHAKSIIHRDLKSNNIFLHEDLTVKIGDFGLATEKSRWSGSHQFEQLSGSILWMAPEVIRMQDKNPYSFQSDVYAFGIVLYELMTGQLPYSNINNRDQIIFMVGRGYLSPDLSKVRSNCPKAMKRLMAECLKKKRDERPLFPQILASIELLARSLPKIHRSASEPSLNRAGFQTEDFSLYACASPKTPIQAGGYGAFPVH

COc1cc(-c2cc(NC(=O)c3cccc(C(F)(F)F)c3)cnc2C)cc(C2COC2)c1 [Example 20, N-(5-(3-methoxy-5-(oxetan-3-yl)phenyl)-6-methylpyridin-3-yl)-3-(trifluoromethyl)-benzamide]
IC50 (b-Raf (V600E)): 6.88 nM | IC50 (C-Raf FL): 0.628 nM

COc1cc(-c2cc(NC(=O)c3cccc(C(F)(F)F)c3)ccc2C)cc(C2COC2)c1 [Example 21]
IC50 (b-Raf (V600E)): 2.73 nM | IC50 (C-Raf FL): 0.373 nM

COc1cc(-c2cc(NC(=O)c3ccnc(C(C)(C)C#N)c3)ccc2C)cc(C2COC2)c1 [Example 23, 2-(2-cyanopropan-2-yl)-N-(3′-methoxy-6-methyl-5′-(oxetan-3-yl)-[1,1′-biphenyl]-3-yl)isonicotinamide]
IC50 (b-Raf (V600E)): 25000 nM | IC50 (C-Raf FL): 25000 nM

Cc1ncc(NC(=O)c2cccc(C(F)(F)F)c2)cc1-c1cccc(C2(C)COC2)c1 [Example 24]
IC50 (b-Raf (V600E)): 3.52 nM | IC50 (C-Raf FL): 0.455 nM

Cc1ccc(NC(=O)c2cccc(C(F)(F)F)c2)cc1-c1cccc(C2(C)COC2)c1 [Example 25, N-(6-methyl-3′-(3-methyloxetan-3-yl)-[1,1′-biphenyl]-3-yl)-3-(trifluoromethyl)benz-amide]
IC50 (b-Raf (V600E)): 0.87 nM | IC50 (C-Raf FL): 0.154 nM

Cc1ccc(C(=O)Nc2cccc(C(F)(F)F)c2)cc1-c1cccc(C2(C)COC2)c1 [Example 26, 6-methyl-3′-(3-methyloxetan-3-yl)-N-(3-(trifluoromethyl)phenyl)-[1,1′-biphenyl]-3-carboxamide]
IC50 (b-Raf (V600E)): 2.3 nM | IC50 (C-Raf FL): 0.372 nM

Cc1ccc(NC(=O)c2ccnc(C(C)(C)C#N)c2)cc1-c1cccc(C2(C)COC2)c1 [Example 27, 2-(2-cyanopropan-2-yl)-N-(6-methyl-3′-(3-methyloxetan-3-yl)-[1,1′-biphenyl]-3-yl)isonicotinamide]
IC50 (b-Raf (V600E)): 1210 nM | IC50 (C-Raf FL): 263 nM

Cc1ccc(NC(=O)c2ccnc(C(C)(C)C#N)c2)cc1-c1cccc(C2COC2)c1 [Example 28, 2-(2-cyanopropan-2-yl)-N-(6-methyl-3′-(oxetan-3-yl)-[1,1′-biphenyl]-3-yl)isonicotinamide]
IC50 (b-Raf (V600E)): 25000 nM | IC50 (C-Raf FL): 25000 nM

Cc1ccc(NC(=O)c2ccnc(C(C)(C)C#N)c2)cc1-c1cc(C2(C)COC2)c2nccn2n1 [Example 29, 2-(2-cyanopropan-2-yl)-N-(4-methyl-3-(8-(3-methyloxetan-3-yl)imidazo[1,2-b]pyridazin-6-yl)phenyl)isonicotinamide]
IC50 (b-Raf (V600E)): 4.95 nM | IC50 (C-Raf FL): 0.637 nM

COc1ncc(-c2cc(NC(=O)c3ccnc(C(C)(C)C#N)c3)ccc2C)cc1C1(F)COC1 [Example 30, 2-(2-cyanopropan-2-yl)-N-(3-(5-(3-fluorooxetan-3-yl)-6-methoxypyridin-3-yl)-4-methylphenyl)isonicotin-amide]
IC50 (b-Raf (V600E)): 1.3 nM | IC50 (C-Raf FL): 0.229 nM

COc1ncc(-c2cc(NC(=O)c3cc(C(C)(F)F)ccn3)ccc2C)cc1C1(F)COC1 [Example 89, 4-(1,1-difluoroethyl)-N-(3-(5-(3-fluorooxetan-3-yl)-6-methoxypyridin-3-yl)-4-methylphenyl)picolinamide]
IC50 (b-Raf (V600E)): 1.19 nM

COc1ncc(-c2cc(NC(=O)c3cc(C(C)(F)F)ccn3)cnc2C)cc1C1(O)COC1 [Example 91]
IC50 (b-Raf (V600E)): 13 nM

Cc1ncc(NC(=O)c2cccc(C(F)(F)F)c2)cc1-c1cc(NCCO)nc(C2(O)CCOCC2)c1 [Example 302, N-(2′-((2-hydroxyethyl)amino)-6′-(4-hydroxytetrahydro-2H-pyran-4-yl)-2-methyl-[3,4′-bipyridin]-5-yl)-3-(trifluoromethyl) benzamide]
IC50 (C-Raf FL): 1.53 nM

Cc1ccc(NC(=O)c2cc(C(F)(F)F)ccn2)cc1-c1cc(NCCO)nc(C2(O)CCOCC2)c1 [Example 303, N-(3-(2-((2-hydroxyethyl)amino)-6-(4-hydroxytetrahydro-2H-pyran-4-yl)pyridin-4-yl)-4-methylphenyl)-4-(trifluoromethyl) picolinamide]
IC50 (C-Raf FL): 1.99 nM

Cc1ccc(NC(=O)c2ccnc(C(F)(F)F)c2)cc1-c1cc(OCCO)nc(C2(O)CCOCC2)c1 [Example 305, N-(3-(2-(2-hydroxyethoxy)-6-(4-hydroxytetra-hydro-2H-pyran-4-yl)pyridin-4-yl)-4-methylphenyl)-2-(trifluoro-methyl) isonicotinamide]
IC50 (C-Raf FL): 0.331 nM

Cc1ccc(NC(=O)c2ccnc(C(F)(F)F)c2)cc1-c1cc(OCCO)nc(C2(F)CCOCC2)c1 [Example 306, N-(3-(2-(4-fluorotetrahydro-2H-pyran-4-yl)-6-(2-hydroxy-ethoxy)pyridin-4-yl)-4-methyl-phenyl)-2-(trifluoromethyl) isonicotinamide]
IC50 (C-Raf FL): 0.83 nM

COCCNc1nnc(-c2cc(NC(=O)c3ccnc(C(F)(F)F)c3)ccc2C)cc1C1CCOCC1 [Example 307, N-(3-(6-((2-methoxyethyl)amino)-5-(tetrahydro-2H-pyran-4-yl)pyridazin-3-yl)-4-methylphenyl)-2-(trifluoromethyl)isonicotinamide]
IC50 (C-Raf FL): 0.08 nM

Cc1ccc(NC(=O)c2ccnc(C(F)(F)F)c2)cc1-c1cc(C2CCOCC2)c(N(C)CCO)nn1 [Example 308]
IC50 (C-Raf FL): 0.5 nM

Cc1ccc(NC(=O)c2ccnc(C(F)(F)F)c2)cc1-c1cc(C2CCOCC2)c(N[C@@H](C)CO)nn1 [Example 309, (S)-N-(3-(6-((1-hydroxypropan-2-yl)amino)-5-(tetrahydro-2H-pyran-4-yl)pyridazin-3-yl)-4-methylphenyl)-2-(trifluoromethyl) isonicotinamide]
IC50 (C-Raf FL): 0.02 nM

Cc1ccc(NC(=O)c2ccnc(C(F)(F)F)c2)cc1-c1cc(C2CCOCC2)c(N[C@H](C)CO)nn1 [Example 310, (R)-N-(3-(6-((1-hydroxypropan-2-yl)amino)-5-(tetrahydro-2H-pyran-4-yl)pyridazin-3-yl)-4-methylphenyl)-2-(trifluoromethyl) isonicotinamide]
IC50 (C-Raf FL): 0.04 nM

Cc1ccc(NC(=O)c2ccnc(C(F)(F)F)c2)cc1-c1cc(C2CCOCC2)c(NC[C@H](C)O)nn1 [Example 311, (S)-N-(3-(6-((2-hydroxypropyl)amino)-5-(tetrahydro-2H-pyran-4-yl)pyridazin-3-yl)-4-methylphenyl)-2-(trifluoromethyl) isonicotinamide]
IC50 (C-Raf FL): 0.05 nM

Cc1ccc(NC(=O)c2ccnc(C(F)(F)F)c2)cc1-c1cc(C2CCOCC2)c(NC[C@@H](C)O)nn1 [Example 312, (R)-N-(3-(6-((2-hydroxypropyl)amino)-5-(tetrahydro-2H-pyran-4-yl)pyridazin-3-yl)-4-methylphenyl)-2-(trifluoromethyl) isonicotinamide]
IC50 (C-Raf FL): 0.1 nM

Cc1ccc(NC(=O)c2ccnc(C(F)(F)F)c2)cc1-c1cc(C2CCOCC2)c(OC2CCOCC2)nn1 [Example 313, N-(4-methyl-3-(5-tetrahydro-2H-pyran-4-yl-6-((tetrahydro-2H-pyran-4-yl)oxy)pyridazin-3-yl)phenyl)-2-(trifluoromethyl)isonicotinamide]
IC50 (C-Raf FL): 0.07 nM

CCN1CCC(Oc2nnc(-c3cc(NC(=O)c4ccnc(C(F)(F)F)c4)ccc3C)cc2C2CCOCC2)CC1 [Example 314, N-(3-(6-((1-ethylpiperidin-4-yl)oxy)-5-(tetrahydro-2H-pyran-4-yl)pyridazin-3-yl)-4-methylphenyl)-2-(trifluoromethyl) isonicotinamide]
IC50 (C-Raf FL): 0.06 nM

COCCOc1nnc(-c2cc(NC(=O)c3ccnc(C(F)(F)F)c3)ccc2C)cc1C1CCOCC1 [Example 315, N-(3-(6-(2-methoxyethoxy)-5-(tetrahydro-2H-pyran-4-yl)pyridazin-3-yl)-4-methylphenyl)-2-(trifluoromethyl) isonicotinamide]
IC50 (C-Raf FL): 0.1 nM

Cc1ccc(NC(=O)c2ccnc(C(F)(F)F)c2)cc1-c1cc(C2CCOCC2)c(OC(C)C)nn1 [Example 316, N-(3-(6-isopropoxy-5-(tetrahydro-2H-pyran-4-yl)pyridazin-3-yl)-4-methylphenyl)-2-(trifluoromethyl) isonicotinamide]
IC50 (C-Raf FL): 0.1 nM

CCOc1nnc(-c2cc(NC(=O)NCCC(C)(C)C)ccc2C)cc1C1CCOCC1 [Example 318, 1-(3,3-dimethylbutyl)-3-(3-(6-ethoxy-5-(tetrahydro-2H-pyran-4-yl)pyridazin-3-yl)-4-methylphenyl)urea]
IC50 (C-Raf FL): 0.1 nM

Cc1ccc(NC(=O)NCCC(C)(C)C)cc1-c1cc(OCCO)nc(C2CCOCC2)c1 [Example 319, 1-(3,3-dimethylbutyl)-3-(3-(2-(2-hydroxyethoxy)-6-(tetrahydro-2H-pyran-4-yl)pyridin-4-yl)-4-methylphenyl)urea]
IC50 (C-Raf FL): 0.1 nM

Cc1ccc(NC(=O)C2CCNC(C(F)(F)F)C2)cc1-c1cc(C2CCOCC2)nc(N2CCC(C)(N)CC2)c1 (centres unmarked) [Example 320]
IC50 (C-Raf FL): 350 nM

Cc1ccc(NC(=O)c2ccnc(C(F)(F)F)c2)cc1-c1cc(C2CCOCC2)nc(N2CCC(C)(N)CC2)c1 [Example 321, N-(3-(2-(4-amino-4-methylpiperidin-1-yl)-6-(tetrahydro-2H-pyran-4-yl)pyridin-4-yl)-4-methylphenyl)-2-(trifluoromethyl)isonicotinamide]
IC50 (C-Raf FL): 0.09 nM

N-(3-(2- (hydroxymethyl)-2- methyl-3-oxo-8- (tetrahydro-2H- pyran-4-yl)-3,4-dihydro- 2H- benzo[b][1,4]oxazin-6- yl)-4-methylphenyl)-5- (trifluoromethyl) pyridazine-3-carboxamide [Example 204]
IC50 (C-Raf FL): 0.02 nM

From patent US10167279B2 (NOVARTIS AG, priority 2014, dated 2019)
